Activity calls are given as the source filed them. No cut-off for these calls is given here.
Key:
Staphylococcus aureus [1] = assay: Antibacterial activity against methicillin-resistant Staphylococcus aureus 575 assessed as inhibition of bacterial growth incubated for 24 hrs by broth microdilution method; format: functional
Staphylococcus aureus [2] = assay: Antibiofilm activity against methicillin-resistant Staphylococcus aureus ATCC33591 assessed as eradication of biofilms at 0.5 ug/ml incubated for 4 hrs by field emission scanning electron microscopy; format: functional, organism-based; settings: dose 0.5 µg/ml
Escherichia coli [3] = assay: Antibacterial activity against Escherichia coli ATCC25922 infected in pyelonephritis C57BL/6 mouse model assessed as restoration of normal renal cortex and pelvis structures at >=5 mg/kg, iv qd for 3 days administered at 2 days post-infection by Hematoxylin-Eosin staining based analysis; format: functional, organism-based; settings: time 3.0 day
[4] = Cytotoxicity against human A549 cells assessed as reduction in cell viability incubated for 24 hrs by CCK8 assay; format: toxicity, cell-based
[5] = AUC (0 to 24 hrs) in Sprague-Dawley rat at 5 mg/kg, iv; format: ADME, organism-based; settings: in vivo
[6] = Aqueous solubility of the compound incubated for 12 hrs by UV-Vis spectrophotometry; format: physicochemical; settings: buffer
Escherichia coli [7] = assay: Antibacterial activity against Escherichia coli ATCC25922 infected in pyelonephritis C57BL/6 mouse model assessed as decrease in IL-6 level in kidney at 3 to 10 mg/kg, iv qd for 3 days administered at 2 days post-infection by ELISA; format: functional, organism-based; settings: dose 3-10 mg/kg, time 3.0 day
[8] = Drug uptake in Sprague-Dawley rat kidney at 5 mg/kg, iv measured for 6 hrs by LC-MS/MS analysis; format: ADME, organism-based; settings: in vivo
Staphylococcus aureus [9] = assay: Antibiofilm activity against methicillin-resistant Staphylococcus aureus ATCC33591 assessed as disruption of preformed biofilms at 0.5 ug/ml incubated for 24 hrs with preformed biofilms by crystal violet staining based analysis; format: functional; settings: dose 0.5 µg/ml
Chlamydia pneumoniae [10] = assay: Anti-mycoplasma activity against Chlamydophila pneumoniae TW183 VR-2282 assessed as inhibition of bacterial growth incubated for 3 to 5 days by broth microdilution method; format: functional; settings: time 3-5 day
Escherichia coli [11] = assay: Antibacterial activity against Escherichia coli ATCC25922 infected in pyelonephritis C57BL/6 mouse model assessed as decrease in inflammatory cell infiltration in kidney at 3 to 10 mg/kg, iv qd for 3 days administered at 2 days post-infection by Hematoxylin-Eosin staining based analysis; format: functional, organism-based; settings: dose 3-10 mg/kg, time 3.0 day
Cell membrane [12] = assay: Disruption of cell membrane in Escherichia coli ATCC25922 assessed as leakage of bacterial cell contents by measuring increase in conductivity of bacterial solution at MIC measured for 6 hrs by conductivity meter analysis
[13] = Observed apparent volume of distribution during terminal phase in Sprague-Dawley rat at 10 mg/kg, po; format: ADME, organism-based; settings: in vivo, read-out: Vz/F_obs
Staphylococcus aureus [14] = assay: Antibacterial activity against methicillin-resistant Staphylococcus aureus ATCC33591 infected in systemic intraperitoneal infection Kunming mouse model assessed as decrease in inflammation and neutrophil infiltration in liver at 5 mg/kg, ip treated at 1 hr post-infection and measured after 7 days by Hematoxylin-Eosin staining based analysis; format: functional, organism-based; settings: time 7.0 day
Cell membrane [15] = assay: Disruption of cell membrane in Escherichia coli ATCC25922 assessed as induction of cell death by measuring increase in propidium iodide fluorescence intensity at 0.5 ug/ml incubated for 2 hrs by fluorescence field microscopy; format: subcellular; settings: dose 0.5 µg/ml
Escherichia coli [16] = assay: Antibacterial activity against Escherichia coli ATCC25922 infected in pyelonephritis C57BL/6 mouse model assessed as decrease in IL-1 beta level in kidney at 3 to 10 mg/kg, iv qd for 3 days administered at 2 days post-infection by ELISA; format: functional, organism-based; settings: dose 3-10 mg/kg, time 3.0 day
Staphylococcus aureus [17] = assay: Antibacterial activity against methicillin-resistant Staphylococcus aureus 596 assessed as inhibition of bacterial growth incubated for 24 hrs by broth microdilution method; format: functional
Cell membrane [18] = assay: Disruption of cell membrane in Escherichia coli ATCC25922 assessed as increase in extracellular ATP content at 0.125 to 0.25 ug/ml incubated for 30 mins by luminescence based analysis; settings: dose 0.125-0.25 µg/ml
Mycoplasmopsis synoviae = assay: Anti-mycoplasma activity against Mycoplasma synoviae WVU1853 NCTC10124 assessed as inhibition of bacterial growth incubated for 3 to 5 days by broth microdilution method; format: functional; settings: time 3-5 day
Chlamydia pneumoniae [19] = assay: Anti-mycoplasma activity against Chlamydophila pneumoniae CWL-029 VR1310 assessed as inhibition of bacterial growth incubated for 3 to 5 days by broth microdilution method; format: functional; settings: time 3-5 day
Staphylococcus aureus [20] = assay: Antibacterial activity against methicillin-resistant Staphylococcus aureus ATCC33591 infected in systemic intraperitoneal infection Kunming mouse model assessed as increase in animal's survival rate at 5 mg/kg, ip treated at 1 hr post-infection and measured on day 7; format: functional; settings: ATCC33591, 168 h, time 7 day
Escherichia coli [21] = assay: Antibacterial activity against Escherichia coli ATCC 25922 assessed as inhibition of bacterial growth incubated for 24 hrs by broth microdilution method; format: functional
[22] = tested on: Mycoplasmoides gallisepticum; assay: Anti-mycoplasma activity against Mycoplasma gallisepticum NCTC10115 assessed as inhibition of bacterial growth incubated for 3 to 5 days by broth microdilution method; format: functional; settings: time 3-5 day
[23] = Tmax in Sprague-Dawley rat at 10 mg/kg, po; format: ADME, organism-based; settings: in vivo
Staphylococcus aureus [24] = assay: Antibacterial activity against methicillin-resistant Staphylococcus aureus ATCC33591 infected in systemic intraperitoneal infection Kunming mouse model assessed as decrease in bacterial colonies in lungs administered intraperitoneally at 1 hr post-infection and measured after 7 days; format: functional, organism-based; settings: dose 5-20 mg/kg, route ip, time 7.0 day
[25] = tested on: Mesomycoplasma hyopneumoniae; assay: Anti-mycoplasma activity against Mycoplasma hyopneumoniae J NCTC10110 assessed as inhibition of bacterial growth incubated for 6 to 7 days by broth microdilution method; format: functional; settings: time 6-7 day
Staphylococcus aureus [26] = assay: Antibacterial activity against methicillin-resistant Staphylococcus aureus ATCC33591 infected in systemic intraperitoneal infection Kunming mouse model assessed as decrease in bacterial colonies in kidneys administered intraperitoneally at 1 hr post-infection and measured after 7 days; format: functional, organism-based; settings: dose 5-20 mg/kg, route ip, time 7.0 day
Cell membrane [27] = assay: Disruption of cell membrane in Escherichia coli ATCC25922 assessed as dissipation of membrane potential at 0.125 to 0.5 ug/ml incubated for 30 mins by DiBAC4(3) probe based fluorescence spectrophotometry; settings: dose 0.125-0.5 µg/ml
Cell membrane [28] = assay: Disruption of cell membrane in methicillin-resistant Staphylococcus aureus ATCC33591 assessed as decrease in intracellular ATP content at 0.125 to 0.25 ug/ml incubated for 30 mins by luminescence based analysis; settings: dose 0.125-0.25 µg/ml
Cell membrane [29] = assay: Disruption of cell membrane in Escherichia coli ATCC25922 assessed as disrupted, furrowed, crumpled cell envelope at 0.125 to 0.5 ug/ml incubated for 2 hrs by propidium iodide staining based confocal laser scanning microscopy; format: subcellular; settings: dose 0.125-0.5 µg/ml
Escherichia coli [30] = assay: Antibacterial activity against Escherichia coli ATCC25922 infected in pyelonephritis C57BL/6 mouse model assessed as recovery of neutrophils count in blood at 3 to 10 mg/kg, iv qd for 3 days administered at 2 days post-infection; format: functional, organism-based; settings: dose 3-10 mg/kg, time 3.0 day
Staphylococcus aureus [31] = assay: Antibiofilm activity against methicillin-resistant Staphylococcus aureus ATCC33591 assessed as eradication of preformed biofilms incubated for 24 hrs with preformed biofilms by crystal violet staining based analysis; format: functional, organism-based; settings: dose 0.125-0.5 µg/ml
[32] = Cmax in Sprague-Dawley rat at 5 mg/kg, iv; format: ADME, organism-based; settings: in vivo

For `C=C[C@]1(C)C[C@@H](OC(=O)CSc2nc3cc[n+](Cc4ccc(C)cc4)cc3[nH]2)[C@]2(C)[C@H](C)CC[C@]3(CCC(=O)[C@H]32)[C@@H](C)[C@@H]1O.[Br-]`, the MIC (Staphylococcus aureus [1]) was 1 µg/mL, the Activity (Staphylococcus aureus [2]) was “Active; Almost Complete Eradication Of Bacteria Observed” and the Activity (Escherichia coli [3]) was “Active”. For the same molecule, the CC50 at 24 h [4] was greater than 100 µM, the AUC(0-t) [5] was 16200 ng·h/mL and the solubility at 12 h [6] was 573 µg/mL. The Activity (Escherichia coli [7]) was “Dose-dependent-effect”, the Drug uptake [8] was “Active” and the Activity (Staphylococcus aureus [9]) was 84.31%. For the same molecule, the MIC (Chlamydia pneumoniae [10]) was less than 0.04 µg/mL, the Activity (Escherichia coli [11]) was “Active” and the Activity (Cell membrane [12]) was “Active”. For the same molecule, the Vd/F [13] was 1.43 L/kg, the Activity (Staphylococcus aureus [14]) was “Active; Nearly Restoration Of Normal Histology Observed” and the Activity (Cell membrane [15]) was “Active”. For the same molecule, the Activity (Escherichia coli [16]) was “Dose-dependent-effect”, the MIC (Staphylococcus aureus [17]) was 2 µg/mL and the Activity (Cell membrane [18]) was “Active”. It also gave an MIC (Mycoplasmopsis synoviae) of less than 0.04 µg/mL, an MIC (Chlamydia pneumoniae [19]) of less than 0.04 µg/mL and a survival at 5 mg/kg (Staphylococcus aureus [20]) of 80%. For the same molecule, the MIC (Escherichia coli [21]) was less than 1 µg/mL, the MIC [22] was less than 0.04 µg/mL and the Tmax [23] was 30 min. The Activity (Staphylococcus aureus [24]) was “Active; Superior Efficacy Compared To Valnemulin Observed”, the MIC [25] was less than 0.04 µg/mL and the Activity (Staphylococcus aureus [26]) was “Active; Superior Efficacy Compared To Valnemulin Observed”. For the same molecule, the Activity (Cell membrane [27]) was “Active”, the Activity (Cell membrane [28]) was “Active” and the Activity (Cell membrane [29]) was “Active”. For the same molecule, the Activity (Escherichia coli [30]) was “Active”, the Activity (Staphylococcus aureus [31]) was “Dose-dependent-effect” and the Cmax [32] was 25600 ng/mL.
